From patent EP0319228A2, “Novel compounds” (BEECHAM GROUP PLC, priority 1987, dated 1989)
≈ marks a conversion by molar mass, not a printed value. Like-named read-outs stand apart in the source and are kept apart here.

Tests used:
Type in all cases: cell-based
[1] = tested on: visna virus (strain K184); experiment: CPE inhibition test (established monolayer) for lentiviruses; details: Visna-maedi virus, read-out: MIC Visna Virus K184 strain in SCP cells
Method: 3 x 10⁴ sheep choroid plexus (SCP) cells were plated into individual wells of a 96 well microtitre plate in 100µl of Eagle's MEM with Hanks' salts containing 10% heat inactivated foetal calf serum (FCS). When monolayers had become established (after 1 or 2 days growth) they were washed with 200µl of maintenance medium (Eagle's MEM with Hanks' salts containing 0.5% FCS) and infected with 100µl of visna virus (strain K184) in maintenance medium (20 TCID₅₀/ml). Test samples were diluted with maintenance medium in further 96 well microtitre plates over the range 200-0.06µg/ml by 3-fold dilution steps. 100µl of the diluted samples was then transferred directly onto virus-infected monolayers (final concentration range therefore 100-0.03µg/ml) and incubated at 37°C in a humidified atmosphere containing, 5% CO₂ until virus-induced CPE was maximal in the untreated virus-infected controls (usually 12-14 days). The plates were fixed with formal saline and stained with crystal violet. Virus-induced CPE was then scored microscopically and the minimum concentration of sample giving complete protection of the cell monolayers (MIC) determined.

[2] = tested on: varicella zoster virus (VZV; Ellen strain); experiment: Plaque reduction test for varicella zoster virus
Method: MRC-5 cells were grown to confluence in 24 well multi-dishes (well diameter = 1.5cm). The drained cell monolayers were each infected with approximately 50 infectious particles of varicella zoster virus (VZV; Ellen strain) in 100µl of phosphate-buffered saline. The virus was adsorbed for 1 hour at room temperature. After adsorption, residual inoculum was removed from each well and replaced with 0.5ml of Eagles's MEM containing 5% […] foetal calf serum and 0.9% agarose (A37). Once the agarose had set, dilutions of the test compound, which had been prepared in Eagle's MEM (containing 5% heat-inactivated foetal calf serum), were added, each well receiving 0.5ml of liquid overlay. The test compound was diluted to give the following series of concentrations: 200, 60, 20, 6....0.06µg/ml; final concentrations in the assay ranged, therefore, between 100µg/ml and 0.03µg/ml. The infected cultures were incubated at 37°C in a humidified atmosphere of 5% CO₂ until plaques were clearly visible (5 or 6 days).
(§1) Cultures from 1 and 2 were fixed in formol saline, the agarose overlays were carefully washed off, and then the cell monolayers were stained with carbol fuchsin. A stereo microscope was used to count plaques. The IC₅₀ (concentration of drug which inhibits the number of plaques formed by 50% relative to the number of plaques observed in virus control monolayers) of the test compound was calculated. In addition, the monolayers were examined for evidence of drug-induced cytotoxicity; the minimum concentration at which cytotoxicity occurs was recorded.

[3] = tested on: herpes simplex virus 1 (HSV-1; strain HFEM); experiment: Plaque reduction test for herpes simplex virus 1; details: read-out: IC₅₀ Herpes Simplex virus Type 1 HFEM strain in Vero cells
Method: (§2) Cells (Vero or MRC-5) were grown to confluence in 24 well multi-dishes (well diameter = 1.5cm). The drained cell monolayers were each infected with approximately 50 infectious particles of herpes simplex virus 1 (HSV-1; strain HFEM) or herpes simplex virus 2 (HSV-2; strain MS) in 100µl of phosphate-buffered saline. The virus was absorbed for 1 hour at room temperature. After adsorption, residual inoculum was removed from each well and replaced with 0.5ml of Eagle's MEM containing 5% newborn calf serum and 0.9% agarose (A37). Once the agarose had set, dilutions of the test compound, which had been prepared in Eagle's MEM (containing 5% newborn calf serum), were added, each well receiving 0.5ml of liquid overlay. The test compound was diluted to give the following series of concentrations: 200, 60, 20, 6....0.06µg/ml; final concentrations in the assay ranged, therefore, between 100µg/ml and 0.03µg/ml. The infected cultures were incubated at 37°C in a humidified atmosphere of 5% CO₂ until plaques were clearly visible (2 or 3 days for Vero cells, usually […] for MRC-5 cells).
as §1

[4] = tested on: herpes simplex virus 2 (HSV-2; strain MS); experiment: Plaque reduction test for herpes simplex virus 2
Method: as §2, §1

[5] = Human alphaherpesvirus 3, MRC5, read-out: IC₅₀ Varicella Zoster virus Ellen strain in MRC-5 cells
[6] = Human alphaherpesvirus 2, MRC5, read-out: IC₅₀ Herpes Simplex virus Type 2 MS strain in MRC-5 cells
[7] = minimum concentration giving complete protection of the cell monolayers from virus-induced CPE, sheep choroid plexus (SCP) cells
[8] = Human alphaherpesvirus 3, MRC5, plaque reduction, Ellen strain, MRC-5 cells, read-out: IC₅₀ Varicella Zoster virus Ellen strain in MRC-5 cells
[9] = Human alphaherpesvirus 1, plaque reduction, HFEM strain, Vero cells
[10] = Human alphaherpesvirus 2, MRC5, plaque reduction, MS strain, MRC-5 cells, read-out: IC₅₀ Herpes Simplex virus Type 2 MS strain in MRC-5 cells

Row | MIC [1, 7] [µg/mL] | IC50 [3, 9] [µg/mL] | SMILES | MIC ([1]; in Ovis aries) [µg/mL] | IC50 [2, 5] [µg/mL] | IC50 ([3]; Human alphaherpesvirus 1, Vero) [µg/mL] | IC50 [4, 6] [µg/mL] | IC50 [2, 8] [µg/mL] | IC50 [4, 10] [µg/mL]
1 | – | – | CCOP(=O)(COCCOn1cnc2c(N)ncnc21)OCC [Example 1, 9-[2-(Diethoxyphosphorylmethoxy)ethoxy]adenine] | 100 (≈ 290 µM) | > 100 | > 100 | > 100 | – | –
2 | 3 (≈ 10.4 µM) | > 100 | Nc1ncnc2c1ncn2OCCOCP(=O)(O)O [Example 2, 9-[2-(Phosphonemethoxy)ethoxy]adenine] | – | – | – | – | 80 (≈ 277 µM) | 69 (≈ 239 µM)
3 | – | – | CCOP(=O)(COCCOn1cnc2c(=O)[nH]c(N)nc21)OCC [Example 3, 9-[2-(Diethoxyphosphorylmethoxy)ethoxy]guanine] | 10 (≈ 27.7 µM) | 51 (≈ 141 µM) | > 100 | > 100 | – | –
4 | < 0.003 | 1.1 (≈ 3.6 µM) | Nc1nc2c(ncn2OCCOCP(=O)(O)O)c(=O)[nH]1 [Example 4, 9-[2-(Phosphonomethoxy)ethoxy]guanine] | – | – | – | – | 0.06 (≈ 0.197 µM) | 0.08 (≈ 0.262 µM)
5 | – | – | CCOP(=O)(O)COCCOn1cnc2c(=O)[nH]c(N)nc21 [Example 5, 9-[2-[Ethoxy(hydroxy)phosphorylmethoxy)ethoxy]guanine] | – | < 3 | 59 (≈ 177 µM) | – | – | –
6 | 0.3 (≈ 0.94 µM) | > 100 | Nc1ncnc2c1ncn2OCC(CO)OCP(=O)(O)O (centres unmarked) [Example 7, 9-[3-Hydroxy-2-(phosphonomethoxy)propoxy]adenine] | – | – | – | – | 66 (≈ 207 µM) | > 100
7 | – | – | CCOP(=O)(O)COC(CO)COn1cnc2c(N)ncnc21 (centres unmarked) [Example 8, 9-[2-[ethoxy(hydroxy)phosphorylmethoxy]-3-hydroxypropoxy]adenine] | 1 (≈ 2.88 µM) | 60 (≈ 173 µM) | > 100 | > 100 | – | –
8 | < 0.003 | 17 (≈ 50.7 µM) | Nc1nc2c(ncn2OCC(CO)OCP(=O)(O)O)c(=O)[nH]1 (centres unmarked) [Example 10, 9-[3-Hydroxy-2-(phosphonomethoxy)propoxy]guanine] | – | – | – | – | 21 (≈ 62.6 µM) | 7.3 (≈ 21.8 µM)
9 | – | – | CCOP(=O)(COCCOn1cnc2c(N)nc(N)nc21)OCC [Example 11, 2,6-Diamino-9-[2-(diethoxyphosphorylmethoxy)ethoxy]purine] | 30 (≈ 83.3 µM) | > 100 | > 100 | – | – | –
10 | 0.3 (≈ 0.986 µM) | 24 (≈ 78.9 µM) | Nc1nc(N)c2ncn(OCCOCP(=O)(O)O)c2n1 [Example 12, 2,6-Diamino-9-[2-phosphonomethoxy)ethoxy]purine] | – | – | – | – | < 3 | –
11 | < 0.03 | 3.7 (≈ 11.4 µM) | Nc1nc(Cl)c2ncn(OCCOCP(=O)(O)O)c2n1 [Example 13, 2-Amino-6-chloro-9-[2-(phosphonomethoxy)ethoxy]purine] | – | – | – | – | 0.5 (≈ 1.54 µM) | –
12 | < 0.03 | < 3 | COc1nc(N)nc2c1ncn2OCCOCP(=O)(O)O [Example 14, 2-Amino-6-methoxy-9-[2-(phosphonomethoxy)ethoxy]purine] | – | – | – | – | < 0.03 | –
13 | – | 29 (≈ 91.4 µM) | Nc1nc2c(ncn2OCC2COP(=O)(O)CO2)c(=O)[nH]1 (centres unmarked) [Example 15, 9-[(2-Hydroxy-2-oxo-1,4,2-dioxaphosphorinan-5-yl)methoxy]guanine] | – | – | – | – | < 3 | –
